Data reported in the NIST ThermoML archive (doi:10.1016/j.jct.2009.11.014).
± gives the expanded uncertainty stated by the source.

Details: Liquid; for mass density: vibrating tube; for viscosity: Stony Brook Scientific falling needle HPHTV-100 viscometer

CCCCCCn1cc[n+](C)c1.F[B-](F)(F)F [1-hexyl-3-methylimidazolium tetrafluoroborate]
Details	mass density [kg/m3]	viscosity [mPa·s]
303.15 K, 4000 kPa	1143.92 ± 0.96	–
303.15 K, 6000 kPa	1144.93 ± 0.96	–
303.15 K, 8000 kPa	1145.93 ± 0.96	–
303.15 K, 10000 kPa	1146.85 ± 0.96	–
303.15 K, 12000 kPa	1147.82 ± 0.96	–
303.15 K, 14000 kPa	1148.83 ± 0.96	–
303.15 K, 20000 kPa	1151.57 ± 0.96	–
303.15 K, 30000 kPa	1156.18 ± 0.95	–
303.15 K, 40000 kPa	1160.55 ± 0.96	–
303.15 K, 50000 kPa	1164.76 ± 0.96	–
303.15 K, 60000 kPa	1168.87 ± 0.96	–
308.15 K, 100 kPa	1138.53 ± 0.96	–
308.15 K, 2000 kPa	1139.5 ± 0.96	–
308.15 K, 4000 kPa	1140.49 ± 0.95	–
308.15 K, 6000 kPa	1141.48 ± 0.95	–
308.15 K, 8000 kPa	1142.48 ± 0.95	–
308.15 K, 10000 kPa	1143.45 ± 0.95	–
308.15 K, 12000 kPa	1144.45 ± 0.95	–
308.15 K, 14000 kPa	1145.41 ± 0.95	–
308.15 K, 20000 kPa	1148.24 ± 0.95	–
308.15 K, 30000 kPa	1152.83 ± 0.95	–
308.15 K, 40000 kPa	1157.26 ± 0.95	–
308.15 K, 50000 kPa	1161.57 ± 0.95	–
308.15 K, 60000 kPa	1165.72 ± 0.95	–
308.25 K, 1850 kPa	–	114.6 ± 14
308.35 K, 14230 kPa	–	131.8 ± 15
308.48 K, 12350 kPa	–	128.7 ± 14
308.55 K, 10300 kPa	–	125.6 ± 14
308.59 K, 8230 kPa	–	122.7 ± 14
308.65 K, 110 kPa	–	112.3 ± 12
308.65 K, 800 kPa	–	113 ± 12
308.65 K, 1730 kPa	–	114.4 ± 14
308.65 K, 2760 kPa	–	115.1 ± 13
308.65 K, 4300 kPa	–	117.5 ± 13
308.65 K, 6380 kPa	–	120.2 ± 13
313.15 K, 100 kPa	1135.1 ± 0.95	–
313.15 K, 2000 kPa	1136.08 ± 0.95	–
313.15 K, 4000 kPa	1137.11 ± 0.95	–
313.15 K, 6000 kPa	1138.14 ± 0.95	–
313.15 K, 8000 kPa	1139.15 ± 0.95	–
313.15 K, 10000 kPa	1140.14 ± 0.95	–
313.15 K, 12000 kPa	1141.13 ± 0.95	–
313.15 K, 14000 kPa	1142.09 ± 0.95	–
313.15 K, 20000 kPa	1144.98 ± 0.94	–
313.15 K, 30000 kPa	1149.62 ± 0.94	–
313.15 K, 40000 kPa	1154.1 ± 0.94	–
313.15 K, 50000 kPa	1158.44 ± 0.95	–
313.15 K, 60000 kPa	1162.62 ± 0.95	–
318.15 K, 100 kPa	1131.72 ± 0.95	–
318.15 K, 2000 kPa	1132.7 ± 0.95	–
318.15 K, 4000 kPa	1133.74 ± 0.95	–
318.15 K, 6000 kPa	1134.77 ± 0.95	–
318.15 K, 8000 kPa	1135.78 ± 0.95	–
318.15 K, 10000 kPa	1136.79 ± 0.95	–
318.15 K, 12000 kPa	1137.78 ± 0.95	–
318.15 K, 14000 kPa	1138.79 ± 0.95	–
318.15 K, 20000 kPa	1141.71 ± 0.95	–
318.15 K, 30000 kPa	1146.4 ± 0.94	–
318.15 K, 40000 kPa	1150.92 ± 0.98	–
318.15 K, 50000 kPa	1155.3 ± 0.95	–
318.15 K, 60000 kPa	1159.5 ± 0.95	–
319.85 K, 2700 kPa	–	70.1 ± 8.1
319.89 K, 110 kPa	–	67.7 ± 7.9
319.95 K, 700 kPa	–	68.1 ± 7.9
319.95 K, 4470 kPa	–	70.7 ± 8.2
319.95 K, 6480 kPa	–	72.9 ± 8.4
319.95 K, 14430 kPa	–	77.8 ± 9.1
319.98 K, 3850 kPa	–	70.5 ± 8.2
319.98 K, 12490 kPa	–	76.1 ± 8.9
319.99 K, 8440 kPa	–	73.7 ± 8.5
320.03 K, 1300 kPa	–	68.2 ± 7.9
320.05 K, 2440 kPa	–	69.2 ± 8
320.05 K, 10500 kPa	–	74.9 ± 8.7
323.15 K, 100 kPa	1128.3 ± 0.95	–
323.15 K, 2000 kPa	1129.31 ± 0.95	–
323.15 K, 4000 kPa	1130.36 ± 0.95	–
323.15 K, 6000 kPa	1131.4 ± 0.95	–
323.15 K, 8000 kPa	1132.43 ± 0.95	–
323.15 K, 10000 kPa	1133.45 ± 0.95	–
323.15 K, 12000 kPa	1134.46 ± 0.95	–
323.15 K, 14000 kPa	1135.46 ± 0.95	–
323.15 K, 20000 kPa	1138.4 ± 0.95	–
323.15 K, 30000 kPa	1143.16 ± 0.98	–
323.15 K, 40000 kPa	1147.2 ± 1	–
323.15 K, 50000 kPa	1152.14 ± 0.98	–
323.15 K, 60000 kPa	1156.42 ± 0.95	–
